How the values were obtained:
Plasmodium cynomolgi [1] = assay: Cures in Plasmodium cynomolgi infected rhesus monkey at 0.5 mg/kg; n=2; format: functional
Plasmodium cynomolgi [2] = assay: Cures in Plasmodium cynomolgi infected rhesus monkey at 10 mg/kg, n=1; format: functional
Plasmodium cynomolgi [3] = assay: Cures in Plasmodium cynomolgi infected rhesus monkey at 0.25 mg/kg, n=1; format: functional
Plasmodium cynomolgi [4] = assay: Cures in Plasmodium cynomolgi infected rhesus monkey at 0.75 mg/kg, n=6; format: functional
Plasmodium cynomolgi [5] = assay: Cures in Plasmodium cynomolgi infected rhesus monkey at 1 mg/kg, n=3; format: functional
Mus musculus [6] = species: Mus musculus; assay: Number of mice (Mus musculus) survived after 60 days of post infection with Plasmodium berghei; format: functional
Mus musculus [7] = assay: Antimalarial activity was determined in Plasmodium berghei infected mice (Mus musculus) at 20 mg/kg dose; format: functional; design: unit not given beside the values
Mus musculus [8] = assay: (§1) Antimalarial activity was determined in Plasmodium berghei infected mice (Mus musculus) at 320 mg/kg dose; format: functional; design: unit not given beside the values
Mus musculus [9] = assay: Antimalarial activity was determined in Plasmodium berghei infected mice (Mus musculus) at 40 mg/kg dose; format: functional; design: unit not given beside the values
Mus musculus [10] = assay: Antimalarial activity was determined in Plasmodium berghei infected mice (Mus musculus) at 80 mg/kg dose; format: functional
Mus musculus [11] = assay: Antimalarial activity was determined in Plasmodium berghei infected mice (Mus musculus) at 160 mg/kg dose; format: functional
Plasmodium cynomolgi [12] = assay: Cures in Plasmodium cynomolgi infected rhesus monkey at 1 mg/kg, n=1; format: functional
Mus musculus [13] = assay: Antimalarial activity was determined in Plasmodium berghei infected mice (Mus musculus) at 640 mg/kg dose; format: functional
Plasmodium cynomolgi [14] = assay: Cures in Plasmodium cynomolgi infected rhesus monkey at 3.16 mg/kg, n=2; format: functional
Mus musculus [15] = assay: Number of mice (Mus musculus) survived after 60 days of post infection with Plasmodium berghei at a dose of 40 mg/kg; format: functional
Mus musculus [16] = assay: Number of mice (Mus musculus) survived after 60 days of post infection with Plasmodium berghei at a dose of 80 mg/kg; format: functional
Mus musculus [17] = assay: Number of mice (Mus musculus) survived after 60 days of post infection with Plasmodium berghei at a dose of 160 mg/kg; format: functional
Mus musculus [18] = assay: Number of mice (Mus musculus) survived after 60 days of post infection with Plasmodium berghei at a dose of 20 mg/kg; format: functional
Mus musculus [19] = assay: Number of toxic death was determined in Plasmodium berghei infected mice (Mus musculus) at 320 mg/kg dose; format: ADME, organism-based; design: dose 320 mg/kg; settings: in vivo
Mus musculus [20] = assay: Number of toxic death was determined in Plasmodium berghei infected mice (Mus musculus) at 640 mg/kg dose; format: ADME, organism-based; design: dose 640 mg/kg; settings: in vivo
Mus musculus [21] = assay: Antimalarial activity was determined in Plasmodium berghei infected mice (Mus musculus) at 10 mg/kg dose; format: functional
Mus musculus [22] = assay: Number of mice (Mus musculus) survived after 60 days of post infection with Plasmodium berghei at a dose of 640 mg/kg; format: functional
Mus musculus [23] = assay: Number of mice (Mus musculus) survived after 60 days of post infection with Plasmodium berghei at a dose of 320 mg/kg; format: functional
Plasmodium cynomolgi [24] = assay: Cures in Plasmodium cynomolgi infected rhesus monkey at 3.16 mg/kg, n=1; format: functional
Plasmodium cynomolgi [25] = assay: Cures in Plasmodium cynomolgi infected rhesus monkey at 0.5 mg/kg, n=1; format: functional
Mus musculus [26] = assay: Number of mice (Mus musculus) survived after 60 days of post infection with Plasmodium berghei at a dose of 10 mg/kg; format: functional
Plasmodium cynomolgi [27] = assay: Cures in Plasmodium cynomolgi infected rhesus monkey at 0.25 mg/kg, n=5; format: functional
Plasmodium cynomolgi [28] = assay: Cures in Plasmodium cynomolgi infected rhesus monkey at 0.125 mg/kg, n=1; format: functional
Mus musculus [29] = assay: as §1; format: functional
Plasmodium cynomolgi [30] = assay: Cures in Plasmodium cynomolgi infected rhesus monkey at 1 mg/kg, n=2; format: functional
Plasmodium cynomolgi [31] = assay: Cures in Plasmodium cynomolgi infected rhesus monkey at 0.316 mg/kg, n=4; format: functional
Plasmodium cynomolgi [32] = assay: Cures in Plasmodium cynomolgi infected rhesus monkey at 0.316 mg/kg, n=2; format: functional
Plasmodium cynomolgi [33] = assay: Number of cures in Plasmodium cynomolgi infected rhesus monkey at 0.25 mg/kg, n=8; format: functional
Plasmodium cynomolgi [34] = assay: Cures in Plasmodium cynomolgi infected rhesus monkey at 0.125 mg/kg; n=5; format: functional
Plasmodium cynomolgi [35] = assay: Cures in Plasmodium cynomolgi infected rhesus monkey at 0.5 mg/kg, n=5; format: functional
Plasmodium cynomolgi [36] = assay: Cures in Plasmodium cynomolgi infected rhesus monkey at 0.75 mg/kg, n=9; format: functional
Plasmodium cynomolgi [37] = assay: Cures in Plasmodium cynomolgi infected rhesus monkey at 0.5 mg/kg, n=12; format: functional
Mus musculus [38] = assay: Number of toxic death was determined in Plasmodium berghei infected mice (Mus musculus) at 160 mg/kg dose; format: ADME, organism-based; design: dose 160 mg/kg; settings: in vivo

| Structure (SMILES) | Cures (Plasmodium cynomolgi [2]) | Delta MST (Mus musculus [7]) | Delta MST (Mus musculus [8]) | Delta MST (Mus musculus [9]) | Delta MST (Mus musculus [10]) | Delta MST (Mus musculus [11]) | Cures (Plasmodium cynomolgi [12]) | also measured |
| --- | --- | --- | --- | --- | --- | --- | --- | --- |
| COc1cc(NC(C)CCCN)c2ncccc2c1Oc1ccc(Cl)cc1 (stereo not given) | 1 | 0.7 | 8.1 | 4.7 | 5.5 | 7.1 |  | Cures (Plasmodium cynomolgi [1]): 0; Cures (Plasmodium cynomolgi [3]): 0; Cures (Plasmodium cynomolgi [4]): 5; Cures (Plasmodium cynomolgi [5]): 3; Cures (Mus musculus [6]): 2 |
| COc1ccc(Oc2c(OC)cc(NC(C)CCCN)c3ncccc23)cc1 (stereo not given) | 1 | 0.4 | 8.6 | 0.4 | 1.6 | 6 | 0 | Cure (Mus musculus [13]): 4 |
| COc1cc(NC(C)CCCN)c2ncccc2c1Oc1ccc(Cl)cc1Cl (stereo not given) | 1 | 0.4 | 4.4 | 0.4 | 0.8 | 2.2 |  | Cures (Plasmodium cynomolgi [14]): 2; Cures (Plasmodium cynomolgi [5]): 0; Delta MST (Mus musculus [13]): 10.4 |
| COc1cc(NC(C)CCCN)c2nccc(C)c2c1Oc1ccccc1 (stereo not given) |  |  |  |  |  |  |  | Cures (Mus musculus [15]): 3; Cures (Mus musculus [16]): 4; Cures (Mus musculus [17]): 4; Cures (Mus musculus [18]): 4; Toxic deaths (Mus musculus [19]): 3; Toxic deaths (Mus musculus [20]): 2; Delta MST (Mus musculus [21]): 8.7 |
| COc1cc(NC(C)CCCN)c2nccc(C)c2c1Oc1cc(C(F)(F)F)cc(C(F)(F)F)c1 (stereo not given) |  | 4.3 |  |  |  |  |  | Cures (Mus musculus [15]): 3; Cures (Mus musculus [22]): 5; Cures (Mus musculus [16]): 5; Cures (Mus musculus [17]): 5; Cures (Mus musculus [23]): 5; Delta MST (Mus musculus [21]): 1.7 |
| COc1cc(NC(C)CCCN)c2ncccc2c1Oc1cc(C(F)(F)F)cc(C(F)(F)F)c1 (stereo not given) | 1 | 0.7 | 6.3 | 0.3 | 0.3 | 1.5 | 0 | Cures (Plasmodium cynomolgi [24]): 1; Delta MST (Mus musculus [13]): 7.9 |
| COc1cc(NC(C)CCCN)c2ncccc2c1Oc1ccc(OC(F)(F)F)cc1 (stereo not given) | 1 | -0.3 | 0.7 | -0.3 | -0.3 | 0.5 | 0 | Toxic deaths (Mus musculus [20]): 1 |
| COc1cc(NC(C)CCCN)c2ncccc2c1Oc1ccc(NC(C)=O)cc1 (stereo not given) |  |  |  |  |  |  | 0 | Cures (Plasmodium cynomolgi [25]): 0 |
| COc1cc(NC(C)CCCN)c2nccc(C)c2c1Oc1ccc(F)c(C(F)(F)F)c1 (stereo not given) |  |  |  |  |  |  |  | Cures (Mus musculus [15]): 5; Cures (Mus musculus [22]): 5; Cures (Mus musculus [16]): 5; Cures (Mus musculus [26]): 1; Cures (Mus musculus [17]): 5; Cures (Mus musculus [18]): 1; Cures (Mus musculus [23]): 5 |
| COc1cc(NC(C)CCCN)c2ncccc2c1Oc1cccc(C(F)(F)F)c1 (stereo not given) |  | 0.5 | 13.5 | 1.3 | 4.1 | 7.1 | 1 | Cures (Plasmodium cynomolgi [1]): 2; Cures (Plasmodium cynomolgi [27]): 3; Cures (Plasmodium cynomolgi [28]): 0; Cures (Mus musculus [13]): 5 |
| COc1cc(NC(C)CCCN)c2ncc(C)cc2c1Oc1ccc(F)c(C(F)(F)F)c1 (stereo not given) |  | 5.9 | 4 | 9.9 | 4 | 5 |  | Toxic deaths (Mus musculus [20]): 1 |
| COc1cc(NC(C)CCCN)c2ncccc2c1Oc1ccc(Cl)c(Cl)c1 (stereo not given) | 1 | 1.2 |  | 0.8 | 0.4 | 6 |  | Cures (Plasmodium cynomolgi [14]): 2; Cures (Plasmodium cynomolgi [5]): 1; Cures (Mus musculus [29]): 1; Cures (Mus musculus [13]): 1 |
| COc1cc(NC(C)CCCN)c2ncccc2c1Oc1ccccc1 (stereo not given) |  | 0.3 | 7.5 | 1.5 | 1.7 | 5.1 |  | Cures (Mus musculus [6]): 2 |
| COc1cc(NC(C)CCCN)c2nccc(C)c2c1 (stereo not given) |  |  | 10 |  |  | 9 |  | Cures (Plasmodium cynomolgi [30]): 2; Cures (Plasmodium cynomolgi [31]): 0; Toxic deaths (Mus musculus [20]): 1 |
| COc1cc(NC(C)CCCN)c2ncccc2c1Oc1ccc(F)c(C(F)(F)F)c1 (stereo not given) |  | -0.2 | 12.2 | 0.8 | 3.4 | 4.6 | 1 | Cures (Plasmodium cynomolgi [32]): 2; Cures (Mus musculus [13]): 2 |
| COc1cc(NC(C)CCCN)c2ncccc2c1Oc1ccc(F)cc1 (stereo not given) |  |  | 8.9 | 2.1 | 5.7 | 7.5 |  | Cures (Plasmodium cynomolgi [33]): 3; Cures (Plasmodium cynomolgi [34]): 0; Cures (Plasmodium cynomolgi [35]): 5; Cures (Mus musculus [6]): 5 |
| COc1cc(NC(C)CCCN)c2ncccc2c1 (stereo not given) [PRIMAQUINE] |  | 4 |  | 5 | 9.4 |  |  | Cures (Plasmodium cynomolgi [32]): 0; Cures (Plasmodium cynomolgi [33]): 0; Cures (Plasmodium cynomolgi [36]): 9; Cures (Plasmodium cynomolgi [37]): 10; Toxic deaths (Mus musculus [38]): 2; Toxic deaths (Mus musculus [19]): 5; Toxic deaths (Mus musculus [20]): 5 |
